Laboratory results: publication PMC10518255, “A first-in-class pan-lysyl oxidase inhibitor impairs stromal remodeling and enhances gemcitabine response and survival in pancreatic cancer” (Nature Cancer, 2023)
Values joined by “and” are separate entries in the source; they are usually repeats but may differ in a detail not shown here. Equal values may be shown once.

How the values were obtained:
[1] = tested on: KPC CCs liver colonization; assay: Intrasplenic model of liver colonization, late administration of treatment (established metastases); type: in vivo, mouse; settings: for Quantification of metastases/mm2 (late administration): Figure 5F, intrasplenic liver colonization, individual animals; for metastatic burden in liver: treatment from day 4, established metastases
Method: Fig. 5 PXS-5505 administered in intrasplenic models of liver colonization. a, Schematic of the intrasplenic model of liver colonization with early administration of treatment. CCs were implanted into the spleen of BALB/c-Fox1nuAusb mice under anesthesia on day 0. Treatment with 0.9% saline (vehicle); twice-weekly Gem (100 mg kg^−1 i.p.) (Gem); daily PXS-5505 at 20 mg kg^−1 i.p. (PXS-5505) or daily PXS-5505 at 20 mg kg^−1 i.p. + twice-weekly Gem at 100 mg kg^−1 i.p. (PXS-5505 + Gem) was administered from day 1. At the end point (day 10) livers were collected and H&E-stained for scoring. Representative images of H&E-stained liver (taken from one biologically independent animal). Scale bar, 100 μm. b, Representative images of H&E-stained livers from each treatment group (n = 1 FOV taken from one biologically independent animal per group). Scale bars, 100 μm. c, Quantification of metastases per mm^2 (n = 9 biologically independent animals per group). Data are mean ± s.d. […] Data are mean ± s.d. Two-tailed P values were determined by an unpaired, nonparametric t-test with a Mann–Whitney U-test correction (comparison between two groups). e, Schematic of intrasplenic model of liver colonization with late administration of treatment. CCs were implanted into the spleen of BALB/c-Fox1nuAusb mice under anesthesia on day 0. Treatment with 0.9% saline (vehicle); twice-weekly Gem (100 mg kg^−1 i.p.) (Gem); daily PXS-5505 at 20 mg kg^−1 i.p. (PXS-5505); or daily PXS-5505 at 20 mg kg^−1 i.p. + three doses of Gem (100 mg kg^−1 i.p. (PXS-5505 + Gem) was administered from day 4. Representative images of H&E-stained liver (taken from one biologically independent animal). Scale bar, 100 μm. f, Quantification of metastases at endpoint (n = 10 biologically independent animals per treatment group, n = 5 biologically independent animals at day 4 for confirmation of overt metastases). Data are mean ± s.d. P values were determined by an unpaired, nonparametric t-test with a Mann–Whitney U-test correction (comparison between two groups). g, Representative images of H&E-stained livers from each treatment group. Scale bars, 100 μm. Source data
For the intrasplenic models, animals were randomized before receiving treatment. GLP-grade PXS-5505 (20 mg kg^−1) was administered daily i.p. (starting day 0 for the early stage and day 4 for the late stage) until the end point and gemcitabine (100 mg kg^−1) was administered on days 3, 6 and 9 for the early stage and days 5, 7 and 10 for the late stage. […]
The 4-µm formalin-fixed paraffin-embedded (FFPE) sections were cut and stained for H&E following standard histopathology methodologies or stained for CK19 using the Bond RX H2(30) protocol detailed above. […] The total number of liver metastases were quantified and determined using QuPath[57].

[2] = tested on: lysyl oxidase family members in KPC CAFs; assay: qRT-PCR of lysyl oxidase family members after treatment (Extended Data Figs. 2d, 3h); type: cell-based, mouse; design: qRT-PCR LOX (Ct) / qRT-PCR LOX ΔCt / qRT-PCR LOX ΔΔCt KPC CAF / qRT-PCR LOXL1 ΔCt / qRT-PCR LOXL1 ΔΔCt KPC CAF / qRT-PCR LOXL2 ΔCt / qRT-PCR LOXL2 ΔΔCt KPC CAF / qRT-PCR LOXL3 ΔCt / qRT-PCR LOXL3 ΔΔCt KPC CAF / qRT-PCR LOXL4 ΔCt / qRT-PCR LOXL4 ΔΔCt KPC CAF: dose or concentration left out as unconfirmed;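 as to qRT-PCR LOX ΔCt: 30 µM PXS-5505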;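 as to qRT-PCR LOXL2 ΔCt: 30 µM PXS-5505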;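 as to qRT-PCR LOXL3 ΔCt: 30 µM PXS-5505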;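 as to qRT-PCR LOXL4 ΔCt: 30 µM PXS-5505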
Method: RNA was isolated using the RNeasy mini kit (QIAGEN) according to the manufacturer’s instructions. Then, 1 μg of RNA was reverse transcribed using the Transcriptor First Strand cDNA Synthesis kit (Roche LifeScience) with anchored-oligo(dT)18 primers or the QuantiTect Reverse Transcription kit (QIAGEN). Real-time PCR was performed using the Roche LightCycler480 (Roche LifeScience) or QuantStudio 7 (Thermo Fisher). The following probe sets from Applied Biosystems, were used: LOX, Mm00495386; LOXL1, Mm01145738; LOXL2, Mm00804740; LOXL3, Mm01184867; LOXL4, Mm00446385; and GAPDH, Mm99999915. Primers and Roche Universal Probe Library probes used for RT–qPCR are described in Supplementary Table 4. Relative mRNA expression levels for each transcript of interest were normalized to GAPDH or ACTB (as indicated) and quantified using the comparative double ΔCt method (unless stated otherwise) for each biological replicate.
Extended Data Fig. 2 Characterization of cells derived from the KPC autochthonous model. a. Immunofluorescence staining of KPC CCs and KPC CAFs for the pancreatic epithelial cell marker CDH1 (green), DAPI (blue) and for the CAF marker α-SMA (yellow), DAPI (blue). Representative images from n = 3 biological independent samples. Scale bar = 30 μm. b. RNAseq reads for CAF and epithelial cell makers in KPC CAFs n = 3 biological independent samples. […] Data is presented as mean values ± SEM. […] Data presented as mean values +/− SD. […] Source data
Data presented as mean values +/− SD. f. […] Data presented as mean values +/− SD. […] Data presented as mean values +/− SD. […] Data presented as mean values +/− SD. Ordinary one-way ANOVA for multiple comparison test performed. Source data

[3] = 50 nM gemcitabine, 48 hours, per replicate
[4] = 50 nM gemcitabine, 48 hours, vs GAPDH, per replicate
[5] = 48 hour treatment, 30 M PXS-5505, replicates
[6] = 48 hour treatment, PXS-5505, replicates
[7] = 48 hour treatment, PXS-5505, vs GAPDH, replicates

## Nc1ccn([C@@H]2O[C@H](CO)[C@@H](O)C2(F)F)c(=O)n1 [Gem, gemcitabine]
[1]
  Quantification of metastases/mm2 (late administration): 0.001632 metastases/mm2 and 0.001329 metastases/mm2 and 0.001736 metastases/mm2 and 0.001305 metastases/mm2 and 0.001793 metastases/mm2 and 0.001126 metastases/mm2 and 0.001529 metastases/mm2 and 0.001107 metastases/mm2 and 0.001352 metastases/mm2 and 0.001209 metastases/mm2
  metastatic burden in liver: did not significantly alter metastatic burden
[2]; 50 nM gemcitabine for 48 hours
  expression of lysyl oxidase family members: increased
[2]; [3]
  LOX ΔΔCt CC: 1.655 and 2.327 and 2.145
  LOXL1 ΔΔCt CC: 1.866 and 1.895 and 1.813
  LOXL2 ΔΔCt CC: 2.3261 and 2.2233 and 1.33
  LOXL3 ΔΔCt CC: 1.66 and 2.86 and 2.05
  LOXL4 ΔΔCt CC: 2.014 and 1.617 and 1.18
[2]; [4]
  LOX ΔCt: 6.157 and 5.668 and 5.782
  LOXL1 ΔCt: 8.043 and 8.021 and 8.085
  LOXL2 ΔCt: 4.354 and 4.419 and 5.16
  LOXL3 ΔCt: 4.977 and 5.26 and 5.74
  LOXL4 ΔCt: 6.2696 and 6.5867 and 7.04

## Cl.Cl.NC/C=C(\F)CS(=O)(=O)c1cccc2cccnc12.O [PXS-5505, (Z)-3-fluoro-4-(quinolin-8-ylsulfonyl)but-2-en-1-amine dihydrochloride monohydrate]
[1]
  Quantification of metastases/mm2 (late administration): 0.001672 metastases/mm2 and 0.001212 metastases/mm2 and 0.001664 metastases/mm2 and 0.001776 metastases/mm2 and 0.002261 metastases/mm2 and 0.001845 metastases/mm2 and 0.0007878 metastases/mm2 and 0.001204 metastases/mm2 and 0.001477 metastases/mm2 and 0.001663 metastases/mm2
  metastatic burden in liver: did not significantly alter metastatic burden
[2]; [5]
  qRT-PCR LOXL1 (Ct): 27.9242 and 27.0668
  qRT-PCR LOXL2 (Ct): 25.5976 and 25.3053 and 25.9273
  qRT-PCR LOXL3 (Ct): 27.0409 and 26.0554 and 26.3059
  qRT-PCR LOXL4 (Ct): 27.6755 and 27.1763 and 27.4097
[2]; [6]
  qRT-PCR LOX (Ct): 27.9362 and 27.041 and 26.9697
  qRT-PCR LOX ΔΔCt KPC CAF: 0.4495 and 1.003 and 0.5566
  qRT-PCR LOXL1 ΔΔCt KPC CAF: 0.5108 and 0.4889 and 0.4223
  qRT-PCR LOXL2 ΔΔCt KPC CAF: 0.6912 and 0.4472 and 0.4586
  qRT-PCR LOXL3 ΔΔCt KPC CAF: 0.6435 and 0.6732 and 0.893
  qRT-PCR LOXL4 ΔΔCt KPC CAF: 1.222 and 0.9127 and 1.225
[2]; [7]
  qRT-PCR LOX ΔCt: 9.054 and 7.896 and 8.745
  qRT-PCR LOXL1 ΔCt: 8.779 and 8.842
  qRT-PCR LOXL2 ΔCt: 6.453 and 7.081 and 7.045
  qRT-PCR LOXL3 ΔCt: 7.896 and 7.831 and 7.423
  qRT-PCR LOXL4 ΔCt: 8.531 and 8.952 and 8.527
[2]; PXS-5505 up to 300 µM
  transcription of lysyl oxidase family members: does not significantly alter transcription
